Experimental data published in patent US11517556B2, “Composition for BKCa channel activation” (GWANGJU INSTITUTE OF SCIENCE AND TECHNOLOGY, priority 2016, dated 2022).

Tests used:
rat bladder strips = assay: Isometric tension recording of bladder smooth muscle strips (ACh-induced contraction); details: 100 μM, 30 min pre-incubation, 1 μM ACh, compared to vehicle, n=6
Description: […] tension recording of UBSM experiment was performed by a known method (Dela Pena et al. 2009; Kullmann et al. 2014). In short, a male Sprague-Dawley rat (300-350 g) was euthanized by CO2 choking. Then, the bladder of the rat was excised. The bladder was longitudinally divided into four strips (approximately 2×8 mm). Each separated strip was clipped between a static mount and a force-displacement transducer. Then, the clipped strips were suspended in a temperature-controlled (37° C.) organ bath containing 10 ml of Krebs solution ((mM): 118.4 NaCl, 4.7 KCl, 1.2 KH2PO4, 1.2 MgSO4, 25.0 NaHCO3, 2.5 CaCl2, and 12.2 glucose; pH 7.35-7.40). Then, a mixture of 95% 02 and 5% CO2 was used to continuously generate bubbles in the organ bath. Each UBSM strip was stretched to 1.0 gram of an optimal isometric tension, and was equilibrated for 60 minutes. […] After reaching the equilibration, the strips were stabilized via repeated application of acetylcholine (1 μM) until a continuous reaction was recorded. […] Relaxation was expressed as a percentage reduction in the tension due to acetylcholine-induced contraction. […] Changes in the isometric tension were recorded using a Power Lab Data Acquisition System (ADInstruments) associated with a computer with Lab Chart Software (Version 7, AD Instruments) installed therein. […]

[1] = biological target: T1, mutant BKCa channel (G803D/N806K) (Rattus norvegicus, UniProt Q62976, G803D/N806K); assay: Cell-based TI+ fluorescence (FluxOR) assay in AD-293 cells
T1 construct: expressed in transfected cells
Description: AD-293 cells (Lee et al., 2013), as a modified HEK293 cell for expressing a mutant BKCa channel, were placed in DMEM (Dulbecco's Modified Eagle's medium) supplemented with 10% fetal bovine serum and 1 mg/ml geneticin (Gibco) as an antibiotic. The cells were cultured under a humidified condition of 5% CO2 and 37° C.
AD-293 cells stably expressing the mutant BKCa channel (G803D/N806K) were used for cell-based assays (Lee et al., 2013). Approximately 20,000 cells/well were inoculated on a black-wall assay plate (Corning Incorporated) coated with poly-D-lysine (Sigma-Aldrich), which is 96-well clear-bottom. A FluxOR™ […] (Invitrogen) was used for initial screening of compound libraries, and for further assay of candidate compounds. Experiments were performed according to the manufacturer's following guidelines: growth medium was replaced with 80 μl/well of loading buffer containing FluxOR™ fluorescent dye, and incubation was carried out for 1 hour under a light-free condition. After the incubation, the loading buffer was replaced with 100 μl/well of assay buffer containing various concentrations of compounds of interest, followed by incubation for 20 minutes to 30 minutes. DMSO (1%) was vehicle and the vehicle was used for all test compounds. CTBIC (Cormemis et al. 2005; Lee et al. 2012), previously identified as an activator of the BKCa channel, was used as a positive control. For fluorescence measurements, synergy TM H1 hybrid multi-mode microplate reader (BioTek Instrument Inc., Winnoski, Vt.) and Cen5 software was used in initial screening. For additional assays, Flexstation 3 multi-mode microplate reader (Molecular Devices) and SoftMax®Pro software were used, respectively. A fluorescence signal was obtained at an excitation wavelength of 485 nm and an emission wavelength of 528 nm. Membrane polarization was induced by a stimulus buffer containing thallium ion. The fluorescence signal was measured under two conditions: every 10 seconds for 2 minutes before treating the stimulation buffer and then every 10 seconds for 3 minutes after addition of stimulation buffer for synergy H1, and every 2 seconds for 20 seconds before stimulus buffer treatment, and then every 2 seconds for 160 seconds after adding the stimulus buffer for FlexStation 3.
A fluorescence signal change was measured based on a relative fluorescence unit (RFU) or F/F0 where F0 is ta minimum fluorescence value of each fluorescence trace. To quantitatively compare activation effects of kurarinone and its derivatives, an initial fluorescence increase was calculated using first three points after treatment with the stimulation buffer, and a linear slope was predicted using OriginPro 9.1 (OriginLab Corp., Northampton, Mass.).

Wistar Kyoto rat (WKY) = assay: Voiding behavior of Wistar Kyoto rat (WKY); assay type: in vivo; details: up to 5 mg/kg
Description: The voiding frequency was monitored for 3 hours. FIG. 9B represents a total number of voidings. Each symbol or bar represents average±SEM of 5 (WKY) or 7 (SHR) animals (*** P<0.001).
The cumulative voiding frequency is shown in FIG. 9A for WKY and SHR orally administered with kurarinone. The administration of kurarinone may allow distinct differences in voiding frequency to be evident between WKY and SHR. […] In the WKY control rat, the decrease of the voiding frequency was not observed.

T1 sequence (Q62976 whole entry G803D/N806K): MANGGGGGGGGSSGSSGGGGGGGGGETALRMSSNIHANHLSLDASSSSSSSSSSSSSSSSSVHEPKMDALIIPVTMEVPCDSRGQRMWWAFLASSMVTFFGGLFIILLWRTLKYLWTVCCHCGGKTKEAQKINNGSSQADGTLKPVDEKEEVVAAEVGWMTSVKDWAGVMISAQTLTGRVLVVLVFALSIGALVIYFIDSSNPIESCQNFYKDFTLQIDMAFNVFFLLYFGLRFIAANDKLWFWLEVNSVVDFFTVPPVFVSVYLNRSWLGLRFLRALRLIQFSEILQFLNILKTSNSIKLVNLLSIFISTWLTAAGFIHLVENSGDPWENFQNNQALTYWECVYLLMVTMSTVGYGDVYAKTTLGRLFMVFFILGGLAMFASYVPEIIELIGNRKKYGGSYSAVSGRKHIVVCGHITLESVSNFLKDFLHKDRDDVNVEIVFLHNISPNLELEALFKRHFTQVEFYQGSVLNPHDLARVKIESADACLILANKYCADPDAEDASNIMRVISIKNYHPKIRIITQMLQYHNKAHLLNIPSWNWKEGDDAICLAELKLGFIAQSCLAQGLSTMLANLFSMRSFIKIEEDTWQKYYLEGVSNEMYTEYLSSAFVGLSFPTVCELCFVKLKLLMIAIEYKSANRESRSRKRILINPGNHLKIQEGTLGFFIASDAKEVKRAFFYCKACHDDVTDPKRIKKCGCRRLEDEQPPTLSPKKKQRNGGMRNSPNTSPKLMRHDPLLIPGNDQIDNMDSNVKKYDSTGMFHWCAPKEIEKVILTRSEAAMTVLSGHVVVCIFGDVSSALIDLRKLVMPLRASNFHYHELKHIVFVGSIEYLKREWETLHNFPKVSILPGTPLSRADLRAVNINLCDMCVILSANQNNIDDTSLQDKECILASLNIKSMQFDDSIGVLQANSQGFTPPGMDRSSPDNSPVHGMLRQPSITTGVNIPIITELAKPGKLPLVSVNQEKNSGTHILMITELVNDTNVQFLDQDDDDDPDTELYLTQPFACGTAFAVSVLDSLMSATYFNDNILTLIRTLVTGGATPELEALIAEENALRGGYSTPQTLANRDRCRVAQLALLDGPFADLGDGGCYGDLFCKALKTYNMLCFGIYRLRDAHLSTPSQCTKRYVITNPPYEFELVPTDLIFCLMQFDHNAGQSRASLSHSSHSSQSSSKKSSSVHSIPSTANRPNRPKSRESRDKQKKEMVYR

TI+ fluorescence increase in library screening ([1]; 5 μM final concentration, compared to vehicle (1% DMSO), among 794 natural compounds): strongest fluorescence increase
TI+-fluorescence enhancement (initial RFU increase) ([1]; 10 μM, n=4): strong fluorescence increase
concentration dependence of TI+ fluorescence ([1]; 3, 5, 10, 30 μM): increased in a dose-dependent manner
SMILES: C=C(C)[C@H](CC=C(C)C)Cc1c(O)cc(OC)c2c1O[C@H](c1ccc(O)cc1O)CC2=O [kurarinone]
relaxation effect on ACh-induced contraction (rat bladder strips): 58.2±6.2%
effect on voiding frequency (Wistar Kyoto rat (WKY)): not affected
